Test system: CDNR4 cells
Assay: Observation of cells during the adaptive response period after the initial exposure
Type: cell-based, murine
Settings: ENU 20 micrograms/ml 1 hour; resolved after 10 to 12 days
Experimental: The murine mammary epithelial cells designated CDNR4 were grown in their preferred growth medium (42% DMEM, 42% Hams F-12, 12% FBS, 1% 100×L-glutamine, 1% pen-strep, 0.5% to 1% bovine pituitary extract) until approximately 6 million cells were available. Cells were removed from the expansion flasks, counted, and replated at a rate of 500,000 cells per […] flask in growth medium. The flasks were assigned randomly to one of two groups: a vehicle-alone exposure (control group); an ENU-exposure (treated) group. For flasks of ENU-exposed cells, ENT was added to the growth medium to achieve a final concentration of 20 micrograms per milliliter. For group 1 flasks, a volume of growth medium equal to the volume of ENU was added to the flasks. The cells were exposed to this solution for 1 hour at 37° C.; at the end of this time the solution was removed, the cells were washed with PBS at 37° C., and the cells were re-fed with fresh growth medium.
This drop in pH recurred within six to 12 hours after re-feeding the cells with fresh growth medium. To reduce this problem, all cells (vehicle-exposed and ENU-exposed) were re-fed every day with medium that was buffered with HEPES at a concentration of 25 millimolar. […] This process of increased cell death among ENU-exposed cells resolved after approximately 10 to 12 days. […]

## CCN(N=O)C(N)=O [ENU, ethylnitrosourea]
  cell death among ENU-exposed flasks during adaptive response period: slight non-significant increase in cell death
